Results published in ChEMBL document CHEMBL6127037, “Design, synthesis, and biological evaluation of imidazolylacetophenone oxime derivatives as novel brain-penetrant agents for Alzheimer's disease treatment” (Eur J Med Chem, 2024).
Active and inactive are the calls of the source. The calls are words filed in the database; no cut-off is given here.

Columns and labels:
[1] = test system: BV-2; experiment: Anti-neuroinflammatory activity against LPS-stimulated mouse BV-2 cells assessed as inhibition of NO production at 1 uM; assay type: functional; parameters: scale not given: the % may be the effect or the level left
[2] = Cytotoxicity against LPS stimulated mouse BV-2 cells assessed as cell survival at 10 uM by MTT assay; assay type: toxicity, cell-based; settings: LPS-stimulated BV-2 cells, read-out: Activity
[3] = test system: BV-2; experiment: Anti-neuroinflammatory activity against LPS-stimulated mouse BV-2 cells assessed as inhibition of NO production at 10 uM; assay type: functional; parameters: scale not given: the % may be the effect or the level left
[4] = Cytotoxicity against mouse HT-22 cells assessed as cell survival at 20 uM by MTT assay; assay type: toxicity, cell-based; settings: read-out: Survival
[5] = molecular target: Acetylcholinesterase (Electrophorus electricus) (UniProt O42275); experiment: Inhibition of electric eel AChE at 20 uM using […] as substrate pretreated for 20 mins prior to DTNB addition for 30 mins followed by substrate addition and measured after 45 mins by Ellman's method relative to control; settings: time 95.0 min
[6] = test system: PC12; experiment: Neuroprotective activity against 6-OHDA induced oxidative damage in […] cells assessed as increase in cell viability preincubated for 4 hrs followed by 6-OHDA stimulation and measured after 24 hrs by MTT assay (reference value: 48.6%); assay type: functional, cell-based; settings: Rattus norvegicus, dose 1-10 µM, time 28.0 hrs
[7] = test system: HT-22; experiment: Neuroprotective activity against RSL3 induced ferroptosis in mouse HT-22 cells assessed as increase in cell viability at 10 uM preincubated for 4 hrs followed by RSL3 stimulation and measured after 24 hrs by MTT assay (reference value: 52.1%); assay type: functional; settings: time 28 hrs
[8] = test system: BV-2; experiment: Anti-neuroinflammatory activity against LPS-stimulated mouse BV-2 cells assessed as inhibition of NO production; assay type: functional, cell-based
[9] = Cytotoxicity against […] cells assessed as cell survival at 20 uM by MTT assay; assay type: toxicity, cell-based, Rattus norvegicus; settings: read-out: Survival
[10] = molecular target: Amyloid-beta precursor protein (Homo sapiens) (UniProt P05067); experiment: Inhibition of self-induced amyloid beta (1 to 42 residues) (unknown origin) aggregation at 20 uM by thioflavin T based fluorescence analysis
[11] = molecular target: Amyloid-beta precursor protein (Homo sapiens) (UniProt P05067); experiment: Inhibition of self-induced amyloid beta (1 to 42 residues) (unknown origin) aggregation at 5 to 20 uM by thioflavin T based fluorescence analysis; settings: dose 5-20 µM
[12] = test system: BV-2; experiment: Antiinflammatory activity against LPS induced mouse BV-2 cells assessed as increase in arginase-1 expression at 0.5 to 2.5 uM incubated for 24 hrs by ELISA; assay type: functional, cell-based; settings: dose 0.5-2.5 µM
[13] = test system: BV-2; experiment: Antiinflammatory activity against LPS induced mouse BV-2 cells assessed as decrease in iNOS expression incubated for 24 hrs by Western blotting analysis; assay type: functional, cell-based; settings: dose 0.1-2.5 µM
[14] = test system: BV-2; experiment: Antiinflammatory activity against LPS induced mouse BV-2 cells assessed as decrease in TNFalpha expression incubated for 24 hrs by ELISA; assay type: functional, cell-based; settings: dose 0.1-2.5 µM
[15] = test system: BV-2; experiment: Antiinflammatory activity against LPS induced mouse BV-2 cells assessed as decrease in COX2 expression incubated for 24 hrs by Western blotting analysis; assay type: functional, cell-based; settings: dose 0.1-2.5 µM
[16] = test system: BV-2; experiment: Antiinflammatory activity against LPS induced mouse BV-2 cells assessed as increase in IL-10 expression at 0.5 to 2.5 uM incubated for 24 hrs by ELISA; assay type: functional, cell-based; settings: dose 0.5-2.5 µM
[17] = test system: BV-2; experiment: Antiinflammatory activity against LPS induced mouse BV-2 cells assessed as decrease in PGE2 expression incubated for 24 hrs by ELISA; assay type: functional, cell-based; settings: dose 0.1-2.5 µM
[18] = Drug distribution in ICR mouse brain measured at 1.25 mins by micro-PET/CT imaging analysis; assay type: ADME, tissue-based; settings: in vivo, 75 s
[19] = Drug distribution in ICR mouse bone measured at 1.25 to 57.5 mins by micro-PET/CT imaging analysis; assay type: ADME, tissue-based, Bone element; settings: in vivo, time 1.25-57.5 min
[20] = Drug distribution in ICR mouse brain measured after 4 to 5 mins by micro-PET/CT imaging analysis; assay type: ADME, tissue-based; settings: in vivo, time 4-5 min
[21] = Drug distribution in ICR mouse liver measured at 60 mins by micro-PET/CT imaging analysis; assay type: ADME, tissue-based; settings: in vivo, 1 h
[22] = Drug distribution in ICR mouse kidney measured at 5.5 mins by micro-PET/CT imaging analysis; assay type: ADME, tissue-based; settings: in vivo
[23] = Drug distribution in ICR mouse brain measured at 1 mins by micro-PET/CT imaging analysis; assay type: ADME, tissue-based; settings: in vivo
[24] = Drug distribution in ICR mouse kidney measured at 60 mins by micro-PET/CT imaging analysis; assay type: ADME, tissue-based; settings: in vivo, 1 h
[25] = Drug distribution in ICR mouse brain measured at 60 mins by micro-PET/CT imaging analysis; assay type: ADME, tissue-based; settings: in vivo, 1 h
[26] = Drug distribution in ICR mouse kidney measured at 1.25 mins by micro-PET/CT imaging analysis; assay type: ADME, tissue-based; settings: in vivo, 75 s
[27] = Drug distribution in ICR mouse lung measured at 1.25 mins by micro-PET/CT imaging analysis; assay type: ADME, tissue-based; settings: in vivo, 75 s
[28] = Drug distribution in ICR mouse muscle measured at 1.25 to 57.5 mins by micro-PET/CT imaging analysis; assay type: ADME, tissue-based, Muscle tissue; settings: in vivo, time 1.25-57.5 min
[29] = Drug distribution in ICR mouse heart measured at 1.25 mins by micro-PET/CT imaging analysis; assay type: ADME, tissue-based; settings: in vivo, 75 s
[30] = Drug distribution in ICR mouse lung measured at 60 mins by micro-PET/CT imaging analysis; assay type: ADME, tissue-based; settings: in vivo, 1 h
[31] = Drug distribution in ICR mouse heart measured at 60 mins by micro-PET/CT imaging analysis; assay type: ADME, tissue-based; settings: in vivo, 1 h
[32] = Drug distribution in ICR mouse liver measured at 1.25 mins by micro-PET/CT imaging analysis; assay type: ADME, tissue-based; settings: in vivo, 75 s

Chain of Acetylcholinesterase (Electrophorus electricus) (O42275 24-633 limits assumed): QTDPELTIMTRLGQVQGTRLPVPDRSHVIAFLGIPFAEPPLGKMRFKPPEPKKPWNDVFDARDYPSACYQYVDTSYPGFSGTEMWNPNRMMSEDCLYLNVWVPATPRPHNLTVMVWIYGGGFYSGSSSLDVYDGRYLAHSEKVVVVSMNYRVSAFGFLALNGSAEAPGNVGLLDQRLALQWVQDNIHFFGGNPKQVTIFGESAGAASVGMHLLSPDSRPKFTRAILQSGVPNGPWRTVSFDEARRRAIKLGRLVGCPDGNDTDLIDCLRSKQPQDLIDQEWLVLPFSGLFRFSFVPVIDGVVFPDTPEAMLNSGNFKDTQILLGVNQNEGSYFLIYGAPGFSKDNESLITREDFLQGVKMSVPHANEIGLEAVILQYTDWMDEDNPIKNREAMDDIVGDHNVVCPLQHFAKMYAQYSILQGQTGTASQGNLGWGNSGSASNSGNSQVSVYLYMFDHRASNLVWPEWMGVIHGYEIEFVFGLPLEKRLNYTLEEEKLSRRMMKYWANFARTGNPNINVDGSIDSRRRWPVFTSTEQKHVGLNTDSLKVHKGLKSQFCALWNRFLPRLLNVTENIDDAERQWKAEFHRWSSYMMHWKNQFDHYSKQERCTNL
Chain of Amyloid-beta precursor protein (Homo sapiens) (P05067 whole entry, the tested form may be a part): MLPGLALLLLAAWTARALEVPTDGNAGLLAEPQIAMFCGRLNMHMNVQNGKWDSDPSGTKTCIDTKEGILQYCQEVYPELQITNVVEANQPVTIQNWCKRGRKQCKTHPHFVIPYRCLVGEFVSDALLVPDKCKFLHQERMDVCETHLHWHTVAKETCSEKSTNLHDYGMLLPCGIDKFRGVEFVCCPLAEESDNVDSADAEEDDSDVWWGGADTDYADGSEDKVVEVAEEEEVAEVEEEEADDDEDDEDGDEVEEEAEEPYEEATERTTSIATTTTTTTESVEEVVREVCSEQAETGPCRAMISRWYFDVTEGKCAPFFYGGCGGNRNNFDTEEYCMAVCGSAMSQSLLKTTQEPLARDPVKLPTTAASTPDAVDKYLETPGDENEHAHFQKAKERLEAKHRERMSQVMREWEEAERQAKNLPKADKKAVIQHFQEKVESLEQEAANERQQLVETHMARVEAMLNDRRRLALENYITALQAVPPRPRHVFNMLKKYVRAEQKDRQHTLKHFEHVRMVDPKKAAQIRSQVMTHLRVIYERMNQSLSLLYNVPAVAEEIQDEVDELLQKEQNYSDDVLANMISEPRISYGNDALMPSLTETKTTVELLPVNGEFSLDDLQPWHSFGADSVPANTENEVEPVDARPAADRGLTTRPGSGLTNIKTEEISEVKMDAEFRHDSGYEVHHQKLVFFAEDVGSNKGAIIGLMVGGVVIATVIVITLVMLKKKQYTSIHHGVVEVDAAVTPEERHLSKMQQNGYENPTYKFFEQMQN

Compound | Activity [1] [%] | viability at 10 µM [2] [%] | Activity [3] [%] | also measured
O=C(Cn1ccnc1)c1ccc2c(c1)OCO2 | 21.5 | 97.9 | 61.6 | 
O=C(CCCC[C@@H]1CCSS1)O/N=C(\Cn1ccnc1)c1ccc2c(c1)OCO2 | 51.8 | 97.5 | 99.7 | viability at 20 µM [4]: > 90%; inhibition [5]: 54.9%; Activity [6]: Dose-Dependent Effect; Activity [7]: 67.7%; EC50 [8]: 0.76 µM; viability at 20 µM [9]: > 95%; inhibition [10]: inactive
O=C(CCCCCO/N=C(\Cn1ccnc1)c1ccc2c(c1)OCO2)NO | 42.7 | 111 | 82.9 | viability at 20 µM [4]: > 90%; Activity [6]: Dose-Dependent Effect; Activity [7]: 66.7%; inhibition [11]: Active; EC50 [8]: 1.09 µM; viability at 20 µM [9]: > 95%
CN(C)c1ccc(/C(Cn2ccnc2)=N/OC(=O)/C=C/c2ccccc2)cc1 | 39.2 | 92.8 | 41.8 | 
C#CCO/N=C(\Cn1ccnc1)c1ccc(C(=O)OCC)cc1 | 34.8 | 115 | 73.5 | 
C=C(C)CO/N=C(\Cn1ccnc1)c1ccc(N(C)C)cc1 | 28.1 | 98.6 | 46.3 | 
CN(C)c1ccc(/C(Cn2ccnc2)=N/OC(=O)CCc2ccccc2)cc1 | 31.5 | 92.5 | 31.4 | 
COc1cc(/C=C/C(=O)O/N=C(\Cn2ccnc2)c2ccc3c(c2)OCO3)ccc1O | 39.4 | 89.4 | 67.6 | 
FCCO/N=C(\Cn1ccnc1)c1ccc2c(c1)OCO2 | 69.5 | 116 | 99.4 | viability at 20 µM [4]: > 90%; Activity [12]: Active; Activity [13]: Dose-Dependent Effect; Activity [14]: Dose-Dependent Effect; inhibition [5]: 60.1%; Activity [6]: Dose-Dependent Effect; Activity [15]: Dose-Dependent Effect; Activity [7]: 66.6%; inhibition [11]: Active; EC50 [8]: 0.49 µM; Activity [16]: Active; Activity [17]: Dose-Dependent Effect; viability at 20 µM [9]: > 95%
C#CCO/N=C(\Cn1ccnc1)c1ccc(C(=O)OC)cc1 | 36 | 105 | 72.7 | 
CN(C)c1ccc(/C(Cn2ccnc2)=N/OC(=O)/C=C/c2ccc(Cl)cc2)cc1 | 41.2 | 85.6 | 54.1 | 
CN(C)c1ccc(/C(Cn2ccnc2)=N/OC(=O)/C=C/c2ccc3c(c2)OCO3)cc1 | 22.2 | 96.7 | 34.2 | Activity [6]: Dose-Dependent Effect; EC50 [8]: 15.7 µM; viability at 20 µM [9]: > 95%
C#CCO/N=C(\Cn1ccnc1)c1ccc(C(=O)NO)cc1 | 36.2 | 109 | 70.5 | Activity [6]: Dose-Dependent Effect; EC50 [8]: 5.61 µM; viability at 20 µM [9]: > 95%
O=C(/C=C/c1ccc2c(c1)OCO2)O/N=C(\Cn1ccnc1)c1ccc2c(c1)OCO2 | 35.8 | 85.2 | 73 | 
COC(=O)CCCCCO/N=C(\Cn1ccnc1)c1ccc2c(c1)OCO2 | 35.4 | 116 | 76 | 
FCCCO/N=C(\Cn1ccnc1)c1ccc2c(c1)OCO2 | 31.1 | 87.7 | 65 | 

Compound | Activity [1] [%] | viability at 10 µM [2] [%] | Activity [3] [%] | also measured
C#CCO/N=C(\Cn1ccnc1)c1ccc(N(C)C)cc1 | 30.9 | 103 | 49.6 | viability at 20 µM [4]: > 90%; inhibition [5]: 70.3%; Activity [6]: Dose-Dependent Effect; Activity [7]: 62.5%; inhibition [11]: Active; EC50 [8]: 6.78 µM; viability at 20 µM [9]: > 95%
Cc1c(CO)ncn1CC(=O)c1ccc2c(c1)OCO2 | 27.4 | 99.8 | 37.7 | 
c1cn(CCc2ccc3c(c2)OCO3)cn1 | 19.6 | 93.3 | 47.9 | 
CN(C)c1ccc(/C(Cn2ccnc2)=N/OC(=O)/C=C/c2ccccc2Cl)cc1 | 38.8 | 105 | 65.8 | 
C#CCO/N=C(/Cn1ccnc1)c1ccc2c(c1)OCO2 | 13.4 | 98.4 | 25.5 | Activity [6]: Dose-Dependent Effect; EC50 [8]: > 20 µM; viability at 20 µM [9]: > 95%
C#CCO/N=C(\Cn1ccnc1)c1ccc2c(c1)OCO2 | 45.2 | 95.9 | 84.5 | Activity [6]: Dose-Dependent Effect; EC50 [8]: 1.18 µM; viability at 20 µM [9]: > 95%
O=C(O/N=C(\Cn1ccnc1)c1ccc2c(c1)OCO2)C12CC3CC(CC(C3)C1)C2 | 44.1 | 113 | 88.4 | 
FCCOCCOCCO/N=C(\Cn1ccnc1)c1ccc2c(c1)OCO2 | 24.4 | 99.9 | 53.9 | 
CN(C)c1ccc(/C(Cn2ccnc2)=N/OC/C=C/c2ccccc2)cc1 | 22.5 | 98.1 | 40.7 | 
COc1ccc(/C=C/C(=O)O/N=C(\Cn2ccnc2)c2ccc3c(c2)OCO3)cc1 | 45.6 | 95.9 | 91.3 | 
C#CCO/N=C(\Cn1cnc(CO)c1C)c1ccc2c(c1)OCO2 | 27.6 | 75.8 | 48.7 | 
O=c1c(O)c(-c2ccc(O)c(O)c2)oc2cc(O)cc(O)c12 [QUERCETIN] |  | 91.3 | 52.8 | 
CN(C)c1ccc(/C(Cn2ccnc2)=N/OCc2ccccc2)cc1 | 27.6 | 97.3 | 48.7 | 
COC(Cn1ccnc1)c1ccc2c(c1)OCO2 (racemic) | 17.9 | 76.1 | 28 | 
OC(Cn1ccnc1)c1ccc2c(c1)OCO2 (racemic) | 21.4 | 97.1 | 68.9 | 
[18F]CCO/N=C(\Cn1ccnc1)c1ccc2c(c1)OCO2 |  |  |  | Drug uptake [18]: 7.4 %ID/cc; Drug uptake [19]: Active; Drug uptake [20]: Not Active; Drug uptake [21]: Not Active; Drug uptake [22]: Active; Drug uptake [23]: Active; Drug uptake [24]: Not Active; Drug uptake [25]: Not Active; Drug uptake [26]: 3.8 %ID/cc; Drug uptake [27]: 5.2 %ID/cc; Drug uptake [28]: Active; Drug uptake [29]: 5 %ID/cc; Drug uptake [30]: Not Active; Drug uptake [31]: Not Active; Drug uptake [32]: 18.1 %ID/cc
